Like-named read-outs stand apart in the source and are kept apart here.
What was measured:
[1] = target: BCL-2 binding to biotinylated BAK peptide (Homo sapiens (Human), UniProt P10415); experiment: SPR (Biacore) solution inhibition assay, BCL-2 binding to BAK peptide surface; conditions: read-out: BCL2_SPR IC50 BAK
Source text: (§1) The present method includes utility of a Surface plasmon resonance (SPR)-based biosensor (Biacore™′ GE Healthcare, Uppsala, Sweden) to characterize BCL-2 inhibitors.
(§2) Biacore™ utilizes the phenomenon of surface plasmon resonance (SPR) to detect and measure binding interactions. In a typical Biacore experiment, one of the interacting molecules (ligand) is immobilized on a flexible dextran matrix while the interacting partner (analyte) is allowed to flow across that surface. A binding interaction results in an increase in mass on the sensor surface and a corresponding direct change in the refractive index of the medium in the vicinity of the sensor surface. Changes in refractive index or signal are recorded in resonance units (R.U.) Signal changes due to association and dissociation of complexes are monitored in a non-invasive manner, continuously and in real-time, the results of which are reported in the form of a sensorgram.
(§3) The SPR assay is configured to examine solution inhibition of BCL-2 binding to peptide derivatized sensor surfaces to generate IC50 values as a measure of inhibitor potency.
(§4) Solution Inhibition Assay Format:
(§5) Biacore™ A100 (GE Healthcare, Uppsala, Sweden) was used to conduct all experiments reported herein. Sensor surface preparation and all interaction analyses experiments were performed at 25° C. Reagents were purchased from GE Healthcare. Running buffer containing 10 mM Hepes, pH7.4, 150 mM sodium chloride, 1.25 mM Dithiothreitol, 3% Dimethyl sulfoxide and 0.05% polysorbate 20 were utilized throughout all analyses.
(§6) Biotinylated BAK, BAD and NOXA peptides were diluted to 10 nM in running buffer and captured onto a sensor surface pre-derivatized with streptavidin (sensor chip SA) to peptide surface densities in the range 50-100 R.U. Peptide captured surfaces were blocked with 500 μM PEO2-Biotin.
(§7) Interaction analyses were performed by first equilibrating each sample within a 6 point three fold compound dilution series in the range […] with 56 nM BCL-2 for one hour during instrument start-up procedures. Protein compound mixtures were then injected over each peptide surface in parallel for 60 seconds at a flow-rate of 30 μL/min. 56 nM BCL-2 control samples were also prepared and run at regular intervals during the assay. Surface regeneration was performed at the end of each analysis cycle by two 30 second injections of 10 mM Glycine, pH 2.5, 1M Sodium Chloride, 0.05% polysorbate 20. Samples and control compound samples were run in duplicate and controls are also run at regular intervals during the assay to monitor surface and assay performance.
(§8) Data analyses are carried out using Biacore™ A100 evaluation software v1.1 to validate assay quality. Binding level report points were used relative to BCL-2 control samples to calculate % inhibition values for each compound protein mixture. […] The range of data shown in table 1 represents the high and low IC50 values obtained from multiple experiments.

[2] = target: BCL-2 binding to biotinylated BAD peptide (Homo sapiens (Human), UniProt P10415); experiment: SPR (Biacore) solution inhibition assay, BCL-2 binding to BAD peptide surface; conditions: read-out: BCL2_SPR IC50 BAD
Source text: as §1, §2, §3, §4, §5, §6, §7, §8

[3] = high and low IC50 values from multiple experiments, 56 nM BCL-2, BAK peptide sensor surface, 25° C.
[4] = high and low IC50 values from multiple experiments, 56 nM BCL-2, BAD peptide sensor surface, 25° C.

Chain of BCL-2 binding to biotinylated BAD peptide (P10415 whole entry): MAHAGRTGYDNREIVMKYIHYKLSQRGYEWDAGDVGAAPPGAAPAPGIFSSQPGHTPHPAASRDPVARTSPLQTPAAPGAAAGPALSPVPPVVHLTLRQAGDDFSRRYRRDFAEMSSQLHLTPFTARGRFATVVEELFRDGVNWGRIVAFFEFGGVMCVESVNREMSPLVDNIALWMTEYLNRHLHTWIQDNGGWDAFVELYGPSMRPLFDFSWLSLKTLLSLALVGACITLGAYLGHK
Chain of BCL-2 binding to biotinylated BAK peptide (P10415 whole entry): as above

IC50 [1, 3] | IC50 [1] | IC50 [2] | IC50 [2, 4] | SMILES
435 to 683 nM | – | – | – | CCCCN(CCCC)C(=O)c1cc(C)n(-c2ccc(NS(=O)(=O)c3ccccc3Cl)cc2C(=O)N2Cc3ccccc3C[C@H]2CO)n1 [Example 14]
– | 474 to 564 nM | 629 to 756 nM | – | CCCCN(CCCC)C(=O)c1cc(C)n(-c2ccc(NS(=O)(=O)c3ccccc3)cc2C(=O)N2Cc3ccccc3C[C@H]2CO)n1 (stereo in doubt) [Example 1, N,N-dibutyl-1-(2-(3-(hydroxymethyl)-1,2,3,4-tetrahydroisoquinoline-2-carbonyl)-4-(phenylsulfonamido)phenyl)-5-methyl-1H-pyrazole-3-carboxamide]
3020 to 3680 nM | – | – | > 16000 nM | CCCCN(CCCC)C(=O)c1cc(C)n(-c2ccc(NS(=O)(=O)c3ccc(Oc4ccccc4C)cc3)cc2C(=O)N2Cc3ccccc3C[C@H]2CO)n1 [Example 10]
252 to 257 nM | – | – | 418 to 436 nM | CCCCN(CCCC)C(=O)c1cc(C)n(-c2ccc(NS(=O)(=O)c3ccc(NC(C)=O)c(Cl)c3)cc2C(=O)N2Cc3ccccc3C[C@H]2CO)n1 [Example 25]
– | 260 to 330 nM | 367 to 387 nM | – | CCCCN(CCCC)C(=O)c1cc(C)n(-c2ccc(NS(C)(=O)=O)cc2C(=O)N2Cc3ccccc3C[C@H]2CO)n1 [Example 2]
828 to 871 nM | – | – | – | CCCCN(CCCC)C(=O)c1cc(C)n(-c2ccc(NS(=O)(=O)c3cc(Cl)ccc3F)cc2C(=O)N2Cc3ccccc3C[C@H]2CO)n1 [Example 17]
2280 to 2510 nM | – | – | – | CCCCN(CCCC)C(=O)c1cc(C)n(-c2ccc(NS(=O)(=O)c3ccc(CNC(=O)c4ccc(Cl)cc4)s3)cc2C(=O)N2Cc3ccccc3C[C@H]2CO)n1 [Example 30]
– | – | – | > 16000 nM | CCCCN(CCCC)C(=O)c1cc(C)n(-c2ccc(NS(=O)(=O)c3ccc(-c4ccc(Cl)cc4)cc3)cc2C(=O)N2Cc3ccccc3C[C@H]2CO)n1 [Example 9]
– | 87.8 to 93 nM | 126 to 127 nM | – | CCCCN(CCCC)C(=O)c1cc(C)n(-c2ccc(NS(=O)(=O)C(C)C)cc2C(=O)N2Cc3ccccc3C[C@H]2CO)n1 [Example 3]

— patent US9126980B2, “Compounds for inhibiting the interaction of BCL2 with binding partners” (Novartis AG, priority 2011, dated 2015)
